Experimental findings from PubChem BioAssay AID1963448 (Molecular Pharmacology Branch, DTP, NCI, 2024) are described below.

SMILES strings stand for the structures. pIC50: −log10 of the molar value. Values joined by “and” are separate entries in the source; they are usually repeats but may differ in a detail not shown here. Equal entries are not always repeated.

In this assay the test system is 616215-338-R-J1-PDC complex spheroid growth, % test/control. Nature of the assay: Anticancer human tumor 616215-338-R-J1-PDC patient-derived colon adenocarcinoma cell line growth inhibition [Asc]. To be noted: for viability, T/C: stronger effect = lower value. The method, then: Multicellular complex tumor spheroid response to apoptosis pathway targeting inhibitors Alrizomadlin, Pelcitoclax, and Dasminapant in combination with a variety of drugs and investigational agents in selected tumor cell lines
The MDM2 inhibitor alrizomadlin, the Bcl-2/Bcl-xL inhibitor pelcitoclax, and the IAPs inhibitor dasminapant were evaluated both individually and in combination with standard of care and investigational anticancer small molecules within a complex spheroid model of solid tumors. . Complex spheroids include a stromal component modeled by human endothelial cells (HUVEC) and fibroblasts modeled by human mesenchymal stem cells (MSCs). The concentration ranges selected for each drug and investigational agent were based upon clinically achievable concentrations if the clinical Cmax of the agent was known.
Compounds. The drugs and investigational agents: alrizomadlin (APG-115; NSC831270), pelcitoclax (APG-1252; NSC835773), dasminapant (APG-1387;NSC834197), TAK-243 (NSC785004), copanlisib (NSC809693), olaparib (NSC753686), talazoparib (NSC767125), cobimetinib (NSC 768068), eltanexor (KPT-8602, NSC 794443), abemaciclib (NSC 768073), sotorasib (NSC818433), adagrasib (NSC 831453), MRTX-1133 (NSC 836407), Iadademestat (ORY1001, NSC 806812), and RMC-4630 (NSC839698), were obtained from the NCI Developmental Therapeutics Program Chemical Repository. The FDA-approved anticancer drug set is available from the Developmental Therapeutics Program at https://dtp.cancer.gov/organization/dscb/obtaining/available plates.htm. […] The stock solutions were prepared in dimethyl sulfoxide (DMSO, Sigma-Aldrich, St. Louis, MO, cat. D2650) at 800-fold the tested concentration and stored at -70 degrees C prior to their use. All drugs and investigational agents were tested over a range starting from a high concentration at or near the clinical Cmax and decreasing in half-log increments. If the clinical Cmax for an agent had not been determined, the highest concentration tested was 10 microM.
The patient-derived cancer (PDC) cell lines include five colon adenocarcinomas: 186277-243-T-J2-PDC, 616215-338-R-J1-PDC, 439559-082-T-J2-PDC, 463943-066-T-J2-PDC, and 519858-162-T-J1-PDC; three pancreatic carcinomas: 323965-272-R-J2-PDC, 521955-158-R6-J3-PDC, and 521955-158-R2-J5-PDC; two uterine sarcomas: 327498-152-R-J2-PDC and 993429-296-R-J1-PDC; two rhabdomyosarcomas: 755483-174-R-J1-PDC and 772245-204-R-J1-PDC; two soft tissue sarcomas: 126254-015-R-J1-PDC and 494315-158-R-J1-PDC; two malignant fibrous histiocytomas: 317291-083-R-J1-PDC and 596521-263-R-J1-PDC; two breast carcinomas: 171881-019-R-J1-PDC and 885512-296-R-J2-PDC; and one ovarian carcinoma: 6556581-035-R-J-PDC were obtained from the NCI PDMR, (https://pdmr.cancer.gov). The established cell lines HSSY-2 synovial sarcoma (RRID:CVCL 8719), SYO-1 synovial sarcoma (RRID:CVCL_7146), MPNST malignant peripheral neural sheath tumor were obtained from the Sloan Kettering Institute. The following established cell lines were purchased from the American Type Culture Collection (ATCC, Manassas, VA), Sor the received from the NCI repository:, PANC-1 pancreatic carcinoma (CRL-1469, RRID:CVCL_0480), OVCAR-5 ovarian carcinoma (RRID:CVCL_1628), OVCAR-8 ovarian carcinoma (RRID:CVCL_1629), , MCF-7 breast carcinoma (CRL-12584, RRID:CVCL_0031), MDA-MB-231 breast carcinoma (CRL-12532, RRID:CVCL_0062), NCI-H1876 small cell lung carcinoma (CRL-5902, RRID:CVCL_1503), NCI-H510A small cell lung carcinoma (HTB-184, RRID:CVCL_1565), NCI-H1417 (CRL-5869, RRID:CVCL_1469), and NCI-H196 small cell lung carcinoma (CRL-5823, RRID:CVCL_1509). Dr. Peter Houghton (Greehey Children's Cancer Research Institute, University of Texas Health Science Center, San Antonio, TX) provided Rh-18 rhabdomyosarcoma (RRID:CVCL_1659). Pooled donor human umbilical vein endothelial cells (HUVEC, Lonza, cat. CC-2519) and human mesenchymal stem cells (hMSC, Lonza, cat. PT-2501) were purchased from Lonza (Walkersville, MD).
Cell Culture. […]
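Further: spheroids exposed to agents for seven days before readout.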
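Wherever viability, T/C is given: 100% = DMSO vehicle control viability.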

`CCN1C(C(=O)NC23CCC(C(=O)O)(CC2)CC3)C(c2cccc(Cl)c2F)C2(C(=O)Nc3cc(Cl)ccc32)C12CCCCC2` (stereo not drawn) + Cc1c(S(C)(=O)=O)c(-c2cc(F)cc(N3CCN(c4ccc(NS(=O)(=O)c5ccc(NC(CCN6CCC(C(=O)OCCCP(=O)(O)O)CC6)CSc6ccccc6)c(S(=O)(=O)C(F)(F)F)c5)cc4)CC3)c2)c(-c2ccc(Cl)cc2)n1C(C)C: the pIC50 (commonly −log10 of the IC50, conventionally taken in molar units) (curve of first compound, second compound 0.1 µM) was 6.31; the pIC50 (curve of first compound, second compound 0.316 µM) is 6.91; the negative logarithm of the IC50 (pIC50) (curve of first compound, second compound 1 µM) was 7.96; the negative logarithm of the IC50 (pIC50) (curve of first compound, second compound 3.16 µM) is more than 8.02; the negative logarithm of the IC50 (pIC50) (curve of first compound, second compound 10 µM) is more than 8.02. Moreover, the viability, T/C (usually the result in the treated group divided by that in the control group, in per cent) reads like this: (second compound 0.1 µM, first compound 0.00949 µM) 92.5%; (second compound 0.1 µM, first compound 0.03 µM) 101%; (second compound 0.1 µM, first compound 0.0949 µM) 77.3%; (second compound 0.1 µM, first compound 0.3 µM) 50.7%; (second compound 0.1 µM, first compound 0.949 µM) 43.3%; (second compound 0.1 µM, first compound 3 µM) 2.3%. The viability, T/C is 89.4% (second compound 0.316 µM, first compound 0.00949 µM); 81.1% (second compound 0.316 µM, first compound 0.03 µM); 51.6% (second compound 0.316 µM, first compound 0.0949 µM); 34.3% (second compound 0.316 µM, first compound 0.3 µM); 3.82% (second compound 0.316 µM, first compound 0.949 µM); 0.48% (second compound 0.316 µM, first compound 3 µM). In addition, the viability, T/C (second compound 1 µM, first compound 0.00949 µM) is 53.2%; the viability, T/C (second compound 1 µM, first compound 0.03 µM) is 29.8%; the viability, T/C (second compound 1 µM, first compound 0.0949 µM) is 17.1%; the viability, T/C (second compound 1 µM, first compound 0.3 µM) is 7.2%; the viability, T/C (second compound 1 µM, first compound 0.949 µM) was 2.56%; the viability, T/C (second compound 1 µM, first compound 3 µM) is 0.18%. Besides, the viability, T/C is 20.3% (second compound 3.16 µM, first compound 0.00949 µM); 5.05% (second compound 3.16 µM, first compound 0.03 µM); 1.2% (second compound 3.16 µM, first compound 0.0949 µM); 0.74% (second compound 3.16 µM, first compound 0.3 µM); 0.06% (second compound 3.16 µM, first compound 0.949 µM); 0.2% (second compound 3.16 µM, first compound 3 µM). In addition, the viability, T/C reads like this: (second compound 10 µM, first compound 0.00949 µM) 4.94%; (second compound 10 µM, first compound 0.03 µM) 1.17%; (second compound 10 µM, first compound 0.0949 µM) 0.43%; (second compound 10 µM, first compound 0.3 µM) 0.5%; (second compound 10 µM, first compound 0.949 µM) 1.65%; (second compound 10 µM, first compound 3 µM) 1.41%.

As for `NC(=O)C(=Cn1cnc(-c2cc(C(F)(F)F)cc(C(F)(F)F)c2)n1)c1cncnc1`, the viability, T/C runs as follows: (compound 0.000949 µM) 97.1% and 89.2% and 43.2%; (compound 0.003 µM) 96.8% and 85% and 52.7%; (compound 0.00949 µM) 99.3% and 95.9% and 24.4%; (compound 0.03 µM) 100% and 86.7% and 29.2%; (compound 0.0949 µM) 95.2% and 81.8% and 20.7%; (compound 0.3 µM) 97.6% and 91.7% and 30.1%.

Regarding `C=CC(=O)N1CCN(c2nc(=O)n(-c3c(C)ccnc3C(C)C)c3nc(-c4c(O)cccc4F)c(F)cc23)C(C)C1` (stereo not drawn), the viability, T/C by setting is: (compound 0.0316 µM) 97% and 99.6% and 107%; (compound 0.1 µM) 95.3% and 101% and 91.9%; (compound 0.316 µM) 102% and 98.2% and 97.2%; (compound 1 µM) 102% and 100% and 74.5%; (compound 3.16 µM) 106% and 109% and 52.6%; (compound 10 µM) 102% and 106% and 35.4%. Besides, where the note is “curve of compound”, the pIC50 was < 5.00 and 5.43.
